In article PMC12040169 (PLOS Biology, 2025):

assay: in vitro; settings: human, hela cells, % viability

Compared with COC(=O)Nc1ccc(S(=O)(=O)N2CCCC(C(=O)Nc3cccc(C(F)(F)F)c3)C2)cc1 (stereo not shown) [CBK265248], COC(=O)Nc1ccc(S(=O)(=O)N2CCCC(C(=O)Nc3ccc4c(c3)OCO4)C2)cc1 (stereo not shown) [CBK265361] is lower in viability at 28.5 h, 10 µM: 92.3% for the first, 89.8% for the second.

First: COC(=O)CN1C(=O)S/C(=C/c2cc(C)n(-c3ccc(S(N)(=O)=O)cc3)c2C)C1=O [CBK265249]
Second: COC(=O)CN1C(=O)S/C(=C/c2cc(C)n(-c3ccc4ncccc4c3)c2C)C1=O [CBK265275]
The viability at 28.5 h, 10 µM of the first is lower: 95.9% for the first, 121% for the second.

First: O=C(O)CN1/C(=C\C=C2/SC(=S)N(c3ccccc3)C2=O)Sc2ccccc21 [CBK265251]
Second: COc1cc(/C=C2\SC(=S)N(c3cccc(C(=O)O)c3)C2=O)cc([N+](=O)[O-])c1O [CBK265281]
The viability at 28.5 h, 10 µM of the first is lower: 86.3% for the first, 96.2% for the second.

Compared with O=C(O)COc1ccccc1/C=N/n1c(S)nnc1-c1ccncc1 [CBK265253], O=C(O)COc1ccccc1/C=N/n1c(S)nnc1-c1cccnc1 [CBK265337] is lower in viability at 28.5 h, 10 µM: 111% for the first, 89.9% for the second.

Compared with O=[N+]([O-])c1ccccc1S(=O)(=O)NCCSCc1c(F)cccc1Cl [CBK265259], O=S(=O)(NCCSCc1c(Cl)cccc1Cl)c1ccc(Cl)cc1 [CBK265304] is lower in viability at 28.5 h, 10 µM: 102% for the first, 91.2% for the second.

First: FC(F)(F)c1ccccc1/C=N/n1c(S)nnc1COc1ccccc1 [CBK265260]
Second: Oc1cccc(/C=N/n2c(S)nnc2-c2ccncc2)c1 [CBK265300]
The viability at 28.5 h, 10 µM of the first is lower: 99.7% for the first, 109% for the second.

Compared with COc1ccc(Cl)cc1NC(=O)CN(c1ccccc1)S(=O)(=O)c1ccc(Cl)cc1 [CBK265261], COc1ccc(S(=O)(=O)N(CC(=O)N2CCC(C(N)=O)CC2)c2ccccc2)cc1 [CBK265301] is higher in viability at 28.5 h, 10 µM: 105% for the first, 108% for the second.

First: CS(=O)(=O)N(CC(=O)Nc1ccccc1F)c1ccc(I)cc1 [CBK265265]
Second: CS(=O)(=O)N(CC(=O)NCc1ccccn1)c1ccc(I)cc1 [CBK265369]
The viability at 28.5 h, 10 µM of the first is higher: 97.4% for the first, 78.8% for the second.

First: O=C(O)C(Cc1ccccc1)Nc1ncnc2sc3c(c12)CCC3 (stereo not shown) [CBK265266]
Second: O=C(O)CCNc1nc(Cc2ccccc2)nc2sc3c(c12)CCCC3 [CBK265345]
The viability at 28.5 h, 10 µM of the first is lower: 90.2% for the first, 93.4% for the second.

First: CC12CCC(C(=O)O)(C/C1=N\N)C2(C)C (stereo not shown) [CBK265268]
Second: COC(=O)c1sc(NC(=O)C2CCCCC2C(=O)O)c(C(=O)OC)c1C (stereo not shown) [CBK265389]
The viability at 28.5 h, 10 µM of the first is higher: 113% for the first, 106% for the second.

Going from COc1ccc(C2=NN(c3ccc([N+](=O)[O-])cc3)C(=O)/C2=C/NCc2ccccn2)cc1 [CBK265276] to N=C1/C(=C/c2ccc(-c3cccc([N+](=O)[O-])c3)o2)C(=O)N=C2SC(SCc3ccccc3)=NN12 [CBK265354], the viability at 28.5 h, 10 µM falls from 107% to 88.5%.

Going from O=C(CCc1ccccc1)NC(c1cccc([N+](=O)[O-])c1)c1c(O)ccc2ccccc12 (stereo not shown) [CBK265278] to O=C(Nc1cccc([N+](=O)[O-])c1)c1ccc(CSc2ccccc2)cc1 [CBK265295], the viability at 28.5 h, 10 µM rises from 109% to 117%.

First: O=C(O)CCn1cc(/C=C2\SC(=S)NC2=O)c(-c2cccc(Br)c2)n1 [CBK265287]
Second: O=Cc1cn(CCC(=O)O)nc1-c1cc2ccccc2o1 [CBK265376]
The viability at 28.5 h, 10 µM of the first is higher: 110% for the first, 90% for the second.

First: Oc1ccc(/C=C/c2nc(-c3ccccc3O)n(-c3ccccc3)n2)cc1 [CBK265289]
Second: Cc1cc(C(=O)Oc2cccc(NC3=NS(=O)(=O)c4ccccc43)c2)c2ccccc2n1 [CBK265302]
The viability at 28.5 h, 10 µM of the first is lower: 74.4% for the first, 96.5% for the second.

First: O=C(CN(c1ccccc1)S(=O)(=O)c1ccccc1)N1CCN(Cc2ccc3c(c2)OCO3)CC1 [CBK265290]
Second: NC(=O)C1CCN(C(=O)CN(c2ccccc2)S(=O)(=O)c2ccccc2[N+](=O)[O-])CC1 [CBK265320]
The viability at 28.5 h, 10 µM of the first is higher: 90% for the first, 78% for the second.

First: CCOC(=O)c1cnc2c(C)c(Cl)ccc2c1NCCCN1CCOCC1 [CBK265296]
Second: Cc1cc(Cl)ccc1OCCCC(=O)Nc1sc2c(c1C(N)=O)CCCCCC2 [CBK265390]
The viability at 28.5 h, 10 µM of the first is higher: 99.6% for the first, 94.8% for the second.

Going from CCOC(=O)c1c(NC(=O)/C=C/C(=O)O)sc2c1CCCCC2 [CBK265299] to COC(=O)c1c(NC(=O)CCCC(=O)O)sc2c1CCCCC2 [CBK265393], the viability at 28.5 h, 10 µM falls from 91.5% to 85.4%.

Compared with CSc1nc(O)c(C(c2ccc(Cl)cc2)c2c(O)nc(SC)nc2O)c(O)n1 [CBK265306], CSc1nc(O)c(C(c2ccc(C)cc2)c2c(O)nc(SC)nc2O)c(O)n1 [CBK265313] is lower in viability at 28.5 h, 10 µM: 105% for the first, 90.3% for the second.

First: O=C(CNC(=S)NC(=O)c1ccc(Br)o1)c1ccccc1 [CBK265310]
Second: O=C(CC(Nc1ccccc1Cl)C(=O)O)c1ccccc1 (stereo not shown) [CBK265386]
The viability at 28.5 h, 10 µM of the first is higher: 98% for the first, 81.1% for the second.

First: N=C1NC(=O)/C(=C/c2c(OS(=O)(=O)c3ccc(Cl)cc3)ccc3ccccc23)S1 [CBK265311]
Second: Cc1ccc(NC(=O)c2cc(NC(=O)c3ccccc3C(=O)O)ccc2N2CCCCC2)cc1 [CBK265332]
The viability at 28.5 h, 10 µM of the first is lower: 89.6% for the first, 100% for the second.

Going from CCNC(=O)c1cc2c(=O)n3cc(C)ccc3nc2n(Cc2ccco2)c1=N [CBK265312] to Cc1ccccc1OCCn1c(=N)n(CC(C)C)c2ccccc21 [CBK265392B], the viability at 28.5 h, 10 µM rises from 85.8% to 94.9%.

First: COc1ccc(NC(=S)NC(=O)c2cc3c(C)nn(-c4ccccc4)c3s2)cc1[N+](=O)[O-] [CBK265324]
Second: CC(=O)Nc1ccc(C(=O)N/C(=C/c2ccccc2)C(=O)O)cc1 [CBK265353]
The viability at 28.5 h, 10 µM of the first is higher: 102% for the first, 87.6% for the second.

First: CN(C)CCCOC(=O)C(C)(c1ccccc1)c1ccccc1 [CBK265325C]
Second: COc1ccccc1NC(=S)NCCN(C)C [CBK265343]
The viability at 28.5 h, 10 µM of the first is higher: 118% for the first, 111% for the second.

Going from OCCNC(=S)Nc1ccc(Cl)cc1Cl [CBK265330] to COc1ccccc1NC(=S)NCCc1ccccn1 [CBK265358], the viability at 28.5 h, 10 µM falls from 106% to 91.2%.

First: N/C(=N\OCC(=O)Nc1ccc(-n2cnnn2)cc1)c1nonc1N [CBK265331]
Second: CC(=O)NC(=NOCc1ccc(Br)cc1)c1nonc1NC(C)=O [CBK265342]
The viability at 28.5 h, 10 µM of the first is higher: 104% for the first, 87.8% for the second.

First: COc1ccc(NC(=O)CC2SC(=N)NC2=O)c([N+](=O)[O-])c1 (stereo not shown) [CBK265334]
Second: CC(=O)Oc1ccc(NC(=O)C2CC(Cl)=CCC2C(=O)O)cc1C(=O)O (stereo not shown) [CBK265372]
The viability at 28.5 h, 10 µM of the first is lower: 95.9% for the first, 100% for the second.

First: O=C(Nc1ccccc1)Nc1ccccc1C(=O)NCc1ccccc1 [CBK265338]
Second: O=C(O)c1ccc(/C=N/N2CCN(Cc3ccccc3)CC2)cc1 [CBK265344]
The viability at 28.5 h, 10 µM of the first is lower: 90.2% for the first, 108% for the second.

Compared with CCc1cc2c(NC(C(=O)O)C(C)C)ncnc2s1 (stereo not shown) [CBK265349], COC(=O)c1c(NC(=O)CCCC(=O)O)sc(C)c1C [CBK265382] is higher in viability at 28.5 h, 10 µM: 97.7% for the first, 98.2% for the second.

Going from Cc1ccc(NC(=O)c2cc(NC(=O)C3C4C=CC(C4)C3C(=O)O)ccc2N2CCCCC2)cc1 (stereo not shown) [CBK265350] to CCC(C(=O)Nc1sc2c(c1C(N)=O)CCCCCC2)c1ccccc1 (stereo not shown) [CBK265383], the viability at 28.5 h, 10 µM falls from 107% to 85.8%.

Compared with Cc1sc2ncn(Cc3c(Cl)cccc3Cl)c(=O)c2c1C [CBK265355], O=c1cc2oc3cc(O)c(O)cc3c(-c3cccc(OCc4ccc([N+](=O)[O-])cc4)c3)c-2cc1O [CBK265388] is higher in viability at 28.5 h, 10 µM: 78.8% for the first, 91% for the second.

same assay, conditions: human, hela cells, % viability, bulk resorufin, single well

With O=C(O)CCn1cc(C=C2C(=O)NC(=S)NC2=O)c(-c2cccc([N+](=O)[O-])c2)n1 [CBK265309] the viability at 28.5 h, 10 µM was 116%.
